In patent publication US6737383B1, “Herbicidal oxadiazolidines” (priority 1999, dated 2004):

How the values were obtained:
purple nutsedge = test: Test B pre/postemergence purple nutsedge; assay type: in vivo, Cyperus rotundus
In short: (§1)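 Response is a visual 0-to-10 score relative to untreated plants, where 0 means no effect and 10 means complete control, taken twelve to sixteen days after application. Treatments went onto soil at planting and onto foliage of 1- to 4-leaf plants, using a surfactant-containing non-phytotoxic solvent.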

soybean = test: Test B pre/postemergence soybean; assay type: in vivo, Glycine max
In short: as §1

blackgrass = test: Test B pre/postemergence blackgrass; assay type: in vivo, Alopecurus myosuroides
In short: as §1

duck salad = test: Test B flood test duck salad; assay type: in vivo, Heteranthera limosa
In short: (§2)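 Each value is a visual injury score relative to controls, with 10 meaning complete control and 0 no effect. Evaluation took place twelve to sixteen days after the 2-leaf-stage plants were treated and kept in the greenhouse.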

bamyardgrass = test: Test B flood test barnyardgrass; assay type: in vivo, Echinochloa crus-galli
In short: as §2

pigweed = test: Test B pre/postemergence pigweed; assay type: in vivo, Amaranthus retroflexus
In short: as §1

corn = test: Test B pre/postemergence corn; assay type: in vivo, Zea mays
In short: as §1

rice = test: Test B flood test rice; assay type: in vivo, Oryza sativa
In short: as §2

bedstraw = test: Test B pre/postemergence bedstraw; assay type: in vivo, Galium aparine; conditions: Postemergence, Rate 250 g/ha; scale of 0 to 10, 0 is no effect, 10 is complete control
In short: as §1

rape = test: Test B pre/postemergence rape; assay type: in vivo, Brassica napus
In short: as §1

surinam grass = test: Test B pre/postemergence surinam grass; assay type: in vivo, Brachiaria decumbens
In short: as §1

giant foxtail = test: Test B pre/postemergence giant foxtail; assay type: in vivo, Setaria faberii
In short: as §1

velvetleaf = test: Test B pre/postemergence velvetleaf; assay type: in vivo, Abutilon theophrasti
In short: as §1

smallflower flatsedge = test: Test B flood test smallflower flatsedge; assay type: in vivo, Cyperus difformis
In short: as §2

sugar beet = test: Test B pre/postemergence sugar beet; assay type: in vivo, Beta vulgaris
In short: as §1

morningglory = test: Test B pre/postemergence morningglory; assay type: in vivo, Ipomoea hederacea
In short: as §1

[1] = Postemergence, Rate 125 g/ha, scale of 0 to 10 where 0 is no effect and 10 is complete control
[2] = Preemergence, Rate 62 g/ha, scale of 0 to 10 where 0 is no effect and 10 is complete control
[3] = Preemergence, Rate 125 g/ha, scale of 0 to 10 where 0 is no effect and 10 is complete control
[4] = Preemergence, Rate 250 g/ha, scale 0 to 10 (0 no effect, 10 complete control)
[5] = Rate 500 g/ha, Postemergence, scale 0 to 10, 0 is no effect, 10 is complete control
[6] = Postemergence, Rate 62 g/ha, scale 0 to 10, 0 is no effect, 10 is complete control
[7] = Preemergence, Rate 500 g/ha, scale of 0 to 10 where 0 is no effect and 10 is complete control
[8] = Postemergence, Rate 250 g/ha, scale of 0 to 10, 0 is no effect, 10 is complete control
[9] = Rate 62 g/ha, flood test species, Pre-emergence, visual evaluation after twelve to sixteen days
[10] = Rate 125 g/ha, under heading Pre-emergence, flood test species, visual evaluation after twelve to sixteen days
[11] = Rate 250 g/ha, Pre-emergence (flood test species), scale 0 to 10, 0 is no effect, 10 is complete control
[12] = Rate 500 g/ha, Pre-emergence section of Table B, 0 to 10 scale (0 no effect, 10 complete control)

## CC[C@@H](C)n1c(=O)on(C(=O)N(c2ccc(Cl)cc2)C(C)C)c1=O [Compound 665]
Purple nutsedge; [1]
  Nutsedge plant response rating: 0
Purple nutsedge; [2]
  Nutsedge plant response rating: 0
Purple nutsedge; [3]
  Nutsedge plant response rating: 0
Purple nutsedge; [4]
  Plant response rating, Nutsedge: 0
Purple nutsedge; [5]
  Nutsedge plant response rating: 0
soybean; [6]
  Plant response rating, Soybean: 2
soybean; [1]
  Soybean plant response rating: 2
soybean; [2]
  Soybean plant response rating: 0
soybean; [3]
  Soybean plant response rating: 0
soybean; [4]
  Plant response rating, Soybean: 0
soybean; [7]
  Plant response rating, Soybean: 2
blackgrass; [6]
  Plant response rating, Blackgrass: 3
blackgrass; [1]
  Blackgrass plant response rating: 7
blackgrass; [8]
  Blackgrass plant response rating: 8
blackgrass; [2]
  Blackgrass plant response rating: 5
blackgrass; [3]
  Blackgrass plant response rating: 7
blackgrass; [4]
  Plant response rating, Blackgrass: 8
blackgrass; [7]
  Plant response rating, Blackgrass: 9
blackgrass; [5]
  Blackgrass plant response rating: 8
Duck salad; [9]
  Plant response rating, Ducksalad (0 to 10 scale, 0 is no effect, 10 is complete control): 0
Duck salad; [10]
  Ducksalad plant response rating (0 to 10 scale, 0 is no effect, 10 is complete control): 0
Duck salad; [11]
  Ducksalad plant response rating: 0
Duck salad; [12]
  Ducksalad plant response rating: 0
bamyardgrass; [9]
  Plant response rating, Barnyardgrass (0 to 10 scale, 0 is no effect, 10 is complete control): 0
bamyardgrass; [10]
  Barnyardgrass plant response rating (0 to 10 scale, 0 is no effect, 10 is complete control): 0
bamyardgrass; [11]
  Barnyardgrass plant response rating: 2
bamyardgrass; [12]
  Barnyardgrass plant response rating: 6
pigweed; [6]
  Plant response rating, Redroot pigweed: 3
pigweed; [1]
  Redroot pigweed plant response rating: 3
pigweed; [2]
  Redroot pigweed plant response rating: 7
pigweed; [3]
  Redroot pigweed plant response rating: 8
pigweed; [4]
  Plant response rating, Redroot pigweed: 9
pigweed; [7]
  Plant response rating, Redroot pigweed: 10
pigweed; [5]
  Redroot pigweed plant response rating: 7
corn; [6]
  Plant response rating, Corn: 0
corn; [1]
  Corn plant response rating: 0
corn; [8]
  Corn plant response rating: 0
corn; [2]
  Corn plant response rating: 0
corn; [3]
  Corn plant response rating: 0
corn; [4]
  Plant response rating, Corn: 0
corn; [7]
  Plant response rating, Corn: 3
corn; [5]
  Corn plant response rating: 3
rice; [9]
  Plant response rating, Rice (0 to 10 scale, 0 is no effect, 10 is complete control): 0
rice; [10]
  Rice plant response rating (0 to 10 scale, 0 is no effect, 10 is complete control): 0
rice; [11]
  Rice plant response rating: 0
rice; [12]
  Rice plant response rating: 0
bedstraw
  Bedstraw plant response rating: 0
rape; [6]
  Plant response rating, Rape: 0
rape; [1]
  Rape plant response rating: 0
rape; [2]
  Rape plant response rating: 4
rape; [3]
  Rape plant response rating: 6
rape; [4]
  Plant response rating, Rape: 8
rape; [7]
  Plant response rating, Rape: 9
rape; [5]
  Rape plant response rating: 4
Surinam grass; [6]
  Plant response rating, B. signalgrass: 0
Surinam grass; [1]
  Plant response rating, B. signalgrass: 0
Surinam grass; [8]
  B. signalgrass plant response rating: 1
Surinam grass; [2]
  B. signalgrass plant response rating: 1
Surinam grass; [3]
  B. signalgrass plant response rating: 4
Surinam grass; [4]
  Plant response rating, B. signalgrass: 8
Surinam grass; [7]
  Plant response rating, B. signalgrass: 8
Surinam grass; [5]
  B. signalgrass plant response rating: 5
Giant foxtail; [6]
  Plant response rating, Giant foxtail: 2
Giant foxtail; [1]
  Giant foxtail plant response rating: 4
Giant foxtail; [8]
  Giant foxtail plant response rating: 8
Giant foxtail; [2]
  Giant foxtail plant response rating: 9
Giant foxtail; [3]
  Giant foxtail plant response rating: 10
Giant foxtail; [4]
  Plant response rating, Giant foxtail: 10
Giant foxtail; [7]
  Plant response rating, Giant foxtail: 10
Giant foxtail; [5]
  Giant foxtail plant response rating: 9
velvetleaf; [6]
  Plant response rating, Velvetleaf: 0
velvetleaf; [1]
  Velvetleaf plant response rating: 2
velvetleaf; [2]
  Velvetleaf plant response rating: 0
velvetleaf; [3]
  Velvetleaf plant response rating: 0
velvetleaf; [4]
  Plant response rating, Velvetleaf: 4
velvetleaf; [7]
  Plant response rating, Velvetleaf: 7
velvetleaf; [5]
  Velvetleaf plant response rating: 7
Smallflower flatsedge; [9]
  Plant response rating, S. Flatsedge (0 to 10 scale, 0 is no effect, 10 is complete control): 0
Smallflower flatsedge; [10]
  S. Flatsedge plant response rating (0 to 10 scale, 0 is no effect, 10 is complete control): 0
Smallflower flatsedge; [11]
  S. Flatsedge plant response rating: 0
Smallflower flatsedge; [12]
  S. Flatsedge plant response rating: 0
Sugar beet; [6]
  Plant response rating, Sugarbeets: 0
Sugar beet; [1]
  Sugarbeets plant response rating: 0
Sugar beet; [2]
  Sugarbeets plant response rating: 0
Sugar beet; [3]
  Sugarbeets plant response rating: 3
Sugar beet; [4]
  Plant response rating, Sugarbeets: 6
Sugar beet; [7]
  Plant response rating, Sugarbeets: 7
Sugar beet; [5]
  Sugarbeets plant response rating: 4
morningglory; [6]
  Plant response rating, Morningglory: 4
morningglory; [1]
  Morningglory plant response rating: 6
morningglory; [8]
  Morningglory plant response rating: 6
morningglory; [2]
  Morningglory plant response rating: 0
morningglory; [3]
  Morningglory plant response rating: 0
morningglory; [4]
  Plant response rating, Morningglory: 0
morningglory; [7]
  Plant response rating, Morningglory: 4
morningglory; [5]
  Morningglory plant response rating: 8
